From patent US20020143062A1, “Method to incorporate N-(4-hydroxyphenyl) retinamide in liposomes” (Board of Regents, The University of Texas System, priority 2000, published 2002)
Like-named read-outs stand apart in the source and are kept apart here.

Tests used:
[1] = tested on: ER-negative MDA-MB-231 cells; assay: NO production, nitrite (Table 8); assay type: cell-based; settings: alone or with cyclosporin A 4 μg/ml as labelled, 3 days
Source text: (§1) Liposomal 4-HPR in combination with cyclosporin A, increased iNOS production of NO in breast cancer cells (Table 3-5). […] Furthermore, an increase in the production of NO in these cells was not indicated with other retinoids such as CD437 and ATRA.

[2] = tested on: ER-positive MCF-7 cells; assay: NO production, nitrite assay (Tables 5 and 7); assay type: cell-based
Source text: (§2) Nitric oxide (NO), an important biological second messenger, is known to induce growth inhibition and apoptosis in cells. Nitric oxide (NO) is biosynthesized by isoenzymes called nitric oxide synthases. One such isoenzyme, inducible NOS (iNOS), is present only after cytokine induction, such as interferon-γ (IFN-γ). […] Here, the ability of liposomal 4-HPR and IFN-γ to induce NO production and growth inhibition in breast cancer positive (Table 5) and breast cancer negative (Table 6) cells is examined by nitrite assays and growth inhibition assays, as known to the skilled artisan.
(§3) It is also known to those skilled in the art that nitric oxide (NO) is a biologic mediator derived from the amino acid L-arginine. A family of enzymes, known as nitric oxide synthase (NOS), act upon L-arginine to oxidize one of the guanidino nitrogens to nitric oxide while citrulline is formed from the remainder of the L-arginine molecule.
as §1

[3] = tested on: MCF-7/WT; assay: Cellular proliferation assay, IC50 of retinoids with/without cyclosporin A; assay type: cell-based; settings: for IC50: Homo sapiens
[4] = 100 μM
Protocol: The shelf stability of liposomal 4-HPR with free 4-HPR was compared. Liposomal 4-HPR and free 4-HPR were diluted with 0.9% normal saline at 100 μM concentration, and incubated at room temperature under subdued light. At various time points, absorbance at 345 nm was measured as a parameter of 4-HPR stability. All data are expressed as % of absorbance at time zero, which is considered as 100%.

[5] = tested on: SK-Br-3; assay: NO production, nitrite (Table 10); assay type: cell-based; settings: Herceptin − or + as labelled
Source text: (§4) Overexpression/amplification of the Her-2/neu oncogene has been associated with poor prognosis for breast cancer.

[6] = tested on: BT-474; assay: NO production, nitrite (Table 10); assay type: cell-based; settings: Herceptin − or + as labelled
Source text: as §4

[7] = tested on: MDA-MB-453; assay: NO production, nitrite (Table 10); assay type: cell-based; settings: Herceptin − or + as labelled
Source text: as §4

[8] = tested on: BT-474; assay: Cellular proliferation assay, IC50 of retinoids with/without cyclosporin A; assay type: cell-based; settings: for IC50: Homo sapiens
[9] = tested on: ER-positive MCF-7 cells; assay: Growth inhibition, cell count (Table 5); assay type: cell-based; settings: 4HPR 1 μM alone; 5 days
Source text: as §2

[10] = tested on: ER-positive MCF-7 cells; assay: Growth inhibition, cell count (Table 6); assay type: cell-based; settings: 4HPR 1 μM alone, 5 days
Source text: Nitric oxide (NO), an important biological second messenger, is known to induce growth inhibition and apoptosis in cells. Nitric oxide (NO) is biosynthesized by isoenzymes called nitric oxide synthases. […]

[11] = tested on: MCF-7 cells; assay: Growth and viability, Celltiter 96 Aqueous (MTS) cell proliferation assay; assay type: cell-based; settings: Homo sapiens, MCF7, 96 h, 4 days, % of untreated cells, read-out: Growth and viability (%) after treatment
Protocol: (§5) Breast cancer cell lines were plated in 96 well plates in DMEM/F12 medium supplemented with 5% fetal calf serum and incubated with different concentrations of liposomal 4-HPR and free 4-HPR, respectively. At the end of incubation, the growth of cells was determined by the Celltiter 96 Aqueous nonradioactive cell proliferation assay (Promega Corp., Madison, Wis.) according to the manufacturer's protocol. Growth and viability of cells were determined by MTS assay after treatment with 4-HPR for 3 days (BT-474) and 4 days (MCF7). Growth of treated cells was compared with that of untreated cells cultured under the same conditions, and was expressed as % of untreated cells.

[12] = tested on: BT-474 cells; assay: as above; assay type: cell-based; settings: Homo sapiens, BT-474, 72 h, 3 days, % of untreated cells, read-out: Growth and viability (%) after treatment
Protocol: as §5

[13] = Incorporation efficiency of 4-HPR into liposomes (OD345 after/before separation); assay type: physicochemical
Protocol: The mixture was frozen in acetone-dry ice bath, and then dried by lyophilzer. It was stored as a powder and resuspended with saline before use.
To determine the incorporation efficiency of 4-HPR into liposomes, liposomal 4-HPR powder was resuspended in saline and any free, unincorporated free 4-HPR was separated by centrifugation at 30,000× g for 1 hour. Liposomal 4-HPR was collected as a pellet and washed three times with saline. 4-HPR concentration was determined by absorbance at 345 nm. To remove the interference by liposomal turbidity, absorbance was measured after liposomal 4-HPR before and after separation was diluted with 1:1 mixture of dimethylsulfoxide and water. The incorporation efficiency was calculated by the following equation:
Incorporation efficiency=OD345 (after separation)/OD345 (before separation)×100%

[14] = cited from earlier work
[15] = tested on: MDA-MB-453; assay: Cellular proliferation assay, IC50 of retinoids with/without cyclosporin A; assay type: cell-based; settings: for IC50: Homo sapiens
[16] = tested on: MDA-MB-231; assay: as above; assay type: cell-based; settings: for IC50: Homo sapiens
[17] = tested on: MCF-7/ADR; assay: as above; assay type: cell-based; settings: for IC50: Homo sapiens, NCI/ADR-RES
[18] = tested on: ER-positive MCF-7 cells; assay: NO production, nitrite assay (Table 6); assay type: cell-based; settings: 4HPR 1 μM alone, 5 days
Source text: as §2, §3

[19] = cotreatment with CsA 2 μg/ml, read-out: IC50 With CsA
[20] = without cyclosporin A, read-out: IC50 Without CsA

Question: Which “Nitrite (NO production)” value ([1]; 4HPR 2.5 μM) does the source give for `CC1=C(/C=C/C(C)=C/C=C/C(C)=C/C(=O)Nc2ccc(O)cc2)C(C)(C)CCC1` [4-HPR, N-(4-hydroxyphenyl) retinamide] here?
Answer: 22.8 μM Nitrite /1 × 10^6 cells

Question: And the “Nitrite (NO production)” value ([1]; 4HPR 6.0 μM)?
Answer: 26.7 μM Nitrite /1 × 10^6 cells

Question: What about the “Nitrite (NO production)” value ([2]; 4HPR 1 μM alone, 5 days, text: liposomal 4-HPR) of the same compound?
Answer: 72.6 ± 1.7 μM Nitrite /1 × 10^6 cells

Question: What about the “Nitrite (NO production)” value ([2]; 4HPR 1.0 μM, alone or with cyclosporin A 4 μg/ml as labelled, 3 days) of the same compound?
Answer: 12.5 μM Nitrite /1 × 10^6 cells

Question: What about the “Nitrite (NO production)” value ([2]; 4HPR 2.0 μM, alone or with cyclosporin A 4 μg/ml as labelled, 3 days) of the same compound?
Answer: 33.8 μM Nitrite /1 × 10^6 cells

Question: And the “-Fold ↑ (IC50 without CsA / with CsA)” value ([3]; CsA 2 μg/ml)?
Answer: 3.11 -Fold

Question: And the IC50 ([3]; MCF7, cotreatment with CsA 2 μg/ml, read-out: IC50 With CsA)?
Answer: 1.21 µM

Question: What about the IC50 ([3]; MCF7, without cyclosporin A, read-out: IC50 Without CsA) of the same compound?
Answer: 3.76 µM

Question: What about the “% remaining (absorbance at 345 nm as % of time zero)” value (“% remaining” for short) ([4]; 0 h) of the same compound?
Answer: 100%

Question: What about the “% remaining” value ([4]; 24 h) of the same compound?
Answer: 85%

Question: What about the “% remaining” value ([4]; 48 h) of the same compound?
Answer: 84%

Question: What about the “% remaining” value ([4]; 72 h) of the same compound?
Answer: 71%

Question: And the “% remaining” value ([4]; 96 h)?
Answer: 61%

Question: What about the “% remaining” value ([4]; 120 h) of the same compound?
Answer: 51%

Question: What about the “% remaining” value ([4]; 168 h) of the same compound?
Answer: 32%

Question: What about the “Nitrite (NO production)” value ([5]; 4HPR 1 μM) of the same compound?
Answer: 34.9 ± 1.2 μM Nitrite /1 × 10^6 cells

Question: And the “Nitrite (NO production)” value ([5]; 4HPR 2.5 μM)?
Answer: 75.2 ± 5.1 μM Nitrite /1 × 10^6 cells

Question: And the “Nitrite (NO production)” value ([6]; 4HPR 1 μM)?
Answer: 45.8 ± 0. μM Nitrite /1 × 10^6 cells

Question: What about the “Nitrite (NO production)” value ([6]; 4HPR 2.5 μM) of the same compound?
Answer: 146.9 ± 2.8 μM Nitrite /1 × 10^6 cells

Question: What about the “Nitrite (NO production)” value ([7]; 4HPR 1 μM) of the same compound?
Answer: 30.9 ± 1.5 μM Nitrite /1 × 10^6 cells

Question: What about the “Nitrite (NO production)” value ([7]; 4HPR 2.5 μM) of the same compound?
Answer: 68.1 ± 3.4 μM Nitrite /1 × 10^6 cells

Question: What about the “-Fold ↑ (IC50 without CsA / with CsA)” value ([8]; CsA 2 μg/ml) of the same compound?
Answer: 1.81 -Fold

Question: What about the IC50 [8, 19] of the same compound?
Answer: 1.99 µM

Question: What about the IC50 [8, 20] of the same compound?
Answer: 3.61 µM

Question: What about the Cell count [9] of the same compound?
Answer: 20 × 10^4

Question: And the Cell count [10]?
Answer: 34 × 10^4

Question: And the viability at 0.1 µM ([11]; 0.1 μM 4-HPR)?
Answer: 106 ± 7.8%

Question: What about the viability at 0.9 µM ([11]; 0.9 μM 4-HPR) of the same compound?
Answer: 77.5 ± 5.8%

Question: What about the viability at […] ([11]; 1.5 μM 4-HPR) of the same compound?
Answer: 43.8 ± 5.7%

Question: And the viability at 1.8 µM ([11]; 1.8 μM 4-HPR)?
Answer: 33.6 ± 2%

Question: What about the viability at 3.6 µM ([11]; 3.6 μM 4-HPR) of the same compound?
Answer: 17.8 ± 1.5%

Question: What about the viability at 0.1 µM ([12]; 0.1 μM 4-HPR) of the same compound?
Answer: 100 ± 13.4%

Question: What about the viability at 0.9 µM ([12]; 0.9 μM 4-HPR) of the same compound?
Answer: 109 ± 4.1%

Question: What about the viability at […] ([12]; 1.5 μM 4-HPR) of the same compound?
Answer: 99.4 ± 12.1%

Question: And the viability at 2.3 µM ([12]; 2.3 μM 4-HPR)?
Answer: 76.9 ± 5.3%

Question: And the viability at 3.8 µM ([12]; 3.8 μM 4-HPR)?
Answer: 52.6 ± 3.7%

Question: What about the viability at 9 µM ([12]; 9.0 μM 4-HPR) of the same compound?
Answer: 17.1 ± 2.8%

Question: What about the incorporation efficiency ([13]; by optimizing ratio of 4-HPR to lipid mixture and ratio of DMPC to soybean oil) of the same compound?
Answer: up to 96%

Question: And the “Incorporation efficiency (%)” value ([13]; composition column 1 of 7: 4-HPR:Lipid (w/w) 1:17, DMPC:soybean oil 1:0, water in tertiary butyl alcohol 0)?
Answer: 60.0%

Question: And the “Incorporation efficiency (%)” value ([13]; composition column 2 of 7: 4-HPR:Lipid 1:17, DMPC:soybean oil 1:0, water in tertiary butyl alcohol 1)?
Answer: 81.5%

Question: What about the “Incorporation efficiency (%)” value ([13]; composition column 3 of 7: water in tertiary butyl alcohol 1, lipid ratios not resolvable (header spans lost), DMPC:soybean oil 9:1) of the same compound?
Answer: 87.5%

Question: And the “Incorporation efficiency (%)” value ([13]; composition column 4 of 7: water in tertiary butyl alcohol 10, lipid ratios not resolvable (header spans lost))?
Answer: 92.8%

Question: And the “Incorporation efficiency (%)” value ([13]; composition column 5 of 7: water in tertiary butyl alcohol 1, lipid ratios not resolvable (header spans lost), DMPC:soybean oil 8:2)?
Answer: 77.5%

Question: What about the “Incorporation efficiency (%)” value ([13]; composition column 6 of 7: 4-HPR:Lipid 1:5 (likely), DMPC:soybean oil 9:1, water in tertiary butyl alcohol 10) of the same compound?
Answer: 88.3%

Question: What about the “Incorporation efficiency (%)” value ([13]; composition column 7 of 7: 4-HPR:Lipid 1:15, DMPC:soybean oil 9:1, water in tertiary butyl alcohol 10) of the same compound?
Answer: 96.4%

Question: And the “solubility in water” value [14]?
Answer: poorly soluble in water

Question: And the “-Fold ↑ (IC50 without CsA / with CsA)” value ([15]; CsA 2 μg/ml)?
Answer: 3.26 -Fold

Question: And the IC50 [15, 19]?
Answer: 1.9 µM

Question: What about the IC50 [15, 20] of the same compound?
Answer: 6.2 µM

Question: And the “-Fold ↑ (IC50 without CsA / with CsA)” value ([16]; CsA 2 μg/ml)?
Answer: 6.37 -Fold

Question: What about the IC50 [16, 19] of the same compound?
Answer: 1.23 µM

Question: And the IC50 [16, 20]?
Answer: 7.84 µM

Question: And the “-Fold ↑ (IC50 without CsA / with CsA)” value ([17]; CsA 4 μg/ml)?
Answer: 2.47 -Fold

Question: And the IC50 ([17]; cotreatment with CsA 4 μg/ml, read-out: IC50 With CsA)?
Answer: 2.7 µM

Question: And the IC50 [17, 20]?
Answer: 6.66 µM

Question: What about the “Nitrite (NO production)” value [18] of the same compound?
Answer: 36.9 ± 5.8 μM Nitrite /1 × 10^6 cells
